In ChEMBL document CHEMBL1149921 (Bioorg Med Chem Lett, 1996):

Assays:
[1] = biological target: T1, Neprilysin (Rattus norvegicus) (UniProt P07861); test: Compound was tested for inhibitory activity against neutral endopeptidase (NEP) at concentration 1000 nM
T1 sequence (whole entry): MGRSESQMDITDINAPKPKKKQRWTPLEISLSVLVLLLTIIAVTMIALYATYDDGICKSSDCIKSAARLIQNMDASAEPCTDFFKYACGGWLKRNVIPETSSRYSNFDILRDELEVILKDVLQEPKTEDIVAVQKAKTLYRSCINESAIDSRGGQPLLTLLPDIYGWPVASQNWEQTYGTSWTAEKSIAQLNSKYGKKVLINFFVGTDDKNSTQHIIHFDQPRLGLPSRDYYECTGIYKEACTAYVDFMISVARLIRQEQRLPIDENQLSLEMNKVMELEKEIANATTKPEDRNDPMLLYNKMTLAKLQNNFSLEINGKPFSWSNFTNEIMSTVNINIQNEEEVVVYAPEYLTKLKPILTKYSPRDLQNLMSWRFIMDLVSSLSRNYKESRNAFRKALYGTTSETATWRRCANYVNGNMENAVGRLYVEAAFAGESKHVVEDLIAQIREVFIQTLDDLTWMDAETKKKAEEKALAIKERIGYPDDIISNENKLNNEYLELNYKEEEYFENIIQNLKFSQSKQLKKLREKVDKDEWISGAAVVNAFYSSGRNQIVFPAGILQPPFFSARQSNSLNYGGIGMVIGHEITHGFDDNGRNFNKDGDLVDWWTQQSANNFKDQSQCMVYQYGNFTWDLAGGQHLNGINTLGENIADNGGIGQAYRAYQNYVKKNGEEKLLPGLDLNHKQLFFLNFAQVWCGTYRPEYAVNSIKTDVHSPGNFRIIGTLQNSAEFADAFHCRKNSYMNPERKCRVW

[2] = biological target: T1, Neprilysin (Rattus norvegicus); test: Compound was tested for inhibitory activity against neutral endopeptidase (NEP) at concentration 300 nM
Neprilysin [3] = biological target: T2, Neprilysin (Rattus norvegicus, UniProt P07861); test: compound was tested for inhibitory activity against neutral endopeptidase (NEP)
T2 sequence (P07861 whole entry): T1 sequence (whole entry)

[4] = biological target: Neprilysin (Rattus norvegicus) (UniProt P07861); test: Compound was tested for inhibitory activity against neutral endopeptidase (NEP) at concentration 10 nM
[5] = biological target: T3, Endothelin-converting enzyme 1 (Homo sapiens) (UniProt P42892); test: Compound was tested for inhibitory activity against Endothelin-converting enzyme isolated from guinea pig lung membrane at concentration 10 nM; type: tissue-based; settings: Cavia porcellus, target entry is the homologue from another species
T3 sequence (whole entry): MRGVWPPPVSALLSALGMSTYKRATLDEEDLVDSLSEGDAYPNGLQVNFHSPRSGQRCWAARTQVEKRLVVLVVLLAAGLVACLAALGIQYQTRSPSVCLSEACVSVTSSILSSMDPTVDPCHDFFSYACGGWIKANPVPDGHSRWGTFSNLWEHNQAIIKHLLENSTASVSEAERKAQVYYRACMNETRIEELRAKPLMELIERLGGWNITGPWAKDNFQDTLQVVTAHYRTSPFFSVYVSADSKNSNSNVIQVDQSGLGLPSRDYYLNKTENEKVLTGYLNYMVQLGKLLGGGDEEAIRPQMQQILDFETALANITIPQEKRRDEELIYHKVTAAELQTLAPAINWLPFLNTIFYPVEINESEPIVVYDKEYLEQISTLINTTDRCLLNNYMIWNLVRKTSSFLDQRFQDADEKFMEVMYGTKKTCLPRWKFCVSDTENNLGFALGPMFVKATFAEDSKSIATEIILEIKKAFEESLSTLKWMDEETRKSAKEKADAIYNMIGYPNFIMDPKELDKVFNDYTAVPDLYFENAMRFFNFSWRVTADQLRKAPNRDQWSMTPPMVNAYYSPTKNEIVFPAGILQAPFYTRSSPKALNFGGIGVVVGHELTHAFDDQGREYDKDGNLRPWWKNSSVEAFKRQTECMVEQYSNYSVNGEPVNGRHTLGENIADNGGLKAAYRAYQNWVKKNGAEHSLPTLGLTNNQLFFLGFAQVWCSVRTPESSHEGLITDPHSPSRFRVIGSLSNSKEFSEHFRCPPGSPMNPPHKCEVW

Neprilysin [6] = biological target: T2, Neprilysin; test: Compound was tested for inhibitory activity against neutral endopeptidase (NEP)

**Q.** With CC(C)C(CP(=O)(O)C(Cc1ccccc1)NC(=O)[C@H](CCCCN)NC(=O)OCc1ccccc1)C(=O)N[C@@H](Cc1c[nH]c2ccccc12)C(=O)O (stereo not given in full) as the compound, how does the inhibition [1] read?
**A.** The inhibition was 0%.

**Q.** With CC(C)CC(CP(=O)(O)C(Cc1ccc2ccccc2c1)NC(=O)[C@H](CCCCNC(=O)OCc1ccccc1)NS(C)(=O)=O)C(=O)N[C@@H](Cc1c[nH]c2ccccc12)C(=O)O (stereo not given in full) as the compound, how does the inhibition [2] read?
**A.** Its inhibition is 13%.

**Q.** For CC(C)CC(CP(=O)(O)C(Cc1ccccc1)NC(=O)[C@H](CC(C)C)NC(=O)OCc1ccccc1)C(=O)N[C@@H](Cc1c[nH]c2ccccc12)C(=O)O (stereo not given in full), which inhibition [2] is on record?
**A.** The inhibition was 9%.

**Q.** CC(C)CC(CP(=O)(O)C(CC(C)C)NC(=O)[C@H](CCCCNC(=O)OCc1ccccc1)NS(C)(=O)=O)C(=O)N[C@@H](Cc1c[nH]c2ccccc12)C(=O)O (stereo not given in full) was tested. Which IC50 (Neprilysin [3]) did it give?
**A.** The IC50 was 0.32 µM.

**Q.** Which IC50 (Neprilysin [3]) does the source give for CC(C)C(CP(=O)(O)C(Cc1ccccc1)NC(=O)[C@H](CCCCN)NS(C)(=O)=O)C(=O)N[C@@H](Cc1c[nH]c2ccccc12)C(=O)O (stereo not given in full) here?
**A.** Its IC50 is 0.8 µM.

**Q.** CC(C)CC(CP(=O)(O)C(N)Cc1ccccc1)C(=O)N[C@@H](Cc1c[nH]c2ccccc12)C(=O)O (stereo not given in full) was tested. Which inhibition [4] did it give?
**A.** The inhibition was 31%.

**Q.** CC(C)C(CP(=O)(O)C(Cc1ccccc1)NC(=O)[C@H](CCCCNC(=O)OCc1ccccc1)NS(C)(=O)=O)C(=O)N[C@@H](Cc1c[nH]c2ccccc12)C(=O)O (stereo not given in full) was tested. Which inhibition [2] did it give?
**A.** Its inhibition is 19%.

**Q.** CC(C)CC(CP(=O)(O)C(Cc1ccc2ccccc2c1)NC(=O)[C@H](CCCCN)NS(C)(=O)=O)C(=O)N[C@@H](Cc1c[nH]c2ccccc12)C(=O)O (stereo not given in full) was tested. Which inhibition [2] did it give?
**A.** Its inhibition is 18%.

**Q.** CC(C)CC(NC(=O)[C@H](CCCCNC(=O)OCc1ccccc1)NS(C)(=O)=O)P(=O)(O)CC(C)C(=O)N[C@@H](Cc1c[nH]c2ccccc12)C(=O)O (stereo not given in full) was tested. Which inhibition [5] did it give?
**A.** The inhibition was 57%.

**Q.** What about the IC50 (Neprilysin [6]) of the same compound?
**A.** Its IC50 is 0.37 µM.
